Holding throughout (assay): growth of human tumour cells (NCI), 48 h
In assay [1] the test system is COLO 205 colon.
Assay [2] deals with M14 melanoma.
The test system of assay [3] is UO-31 renal.
Assay [4] relates to ACHN renal.
In assay [5] the test system is HOP-18 NSCLC.
Assay [6] has as its system DMS 273 small cell lung.
The test system of assay [7] is SK-MEL-5 melanoma.
For assay [8], the system named is DLD-1 colon.
The subject of assay [9] is HL-60(TB) leukemia.
Assay [10] deals with DMS 114 small cell lung.
In assay [11] the test system is XF 498 CNS.
Assay [12] relates to SNB-78 CNS.
The test system of assay [13] is T-47D breast.

Among the data in PubChem BioAssay (NCI) are TGI and GI50 values, retold here.

Where “and” joins values, the source holds several entries; their conditions need not be identical. Equal entries are not always repeated.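 Assay format: 96-well plates, 48-hour exposure. GI50 = concentration required for 50% inhibition of growth. Definition used: TGI = concentration required for complete inhibition of growth.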

For the compound `O=C(Cc1nc2ccccc2s1)Nc1cccc(C(F)(F)F)c1`, the TGI in assay [1] came to 30.7 µM; in [2], 31.2 µM; in [3], 27.6 µM; in assay [4] it was 28.2 µM; in [5], 33.5 µM; in assay [6] it was 42.9 µM. In addition, the TGI in [7] stood at 32.2 µM; in assay [8], 29.9 µM; in assay [9], 17.8 µM; in assay [10], 36.3 µM; in assay [11] it was 28.4 µM.

With `O=CC[C@H]1CCc2ccccc2C12CCC(=O)CC2`, the TGI in assay [1], in [2], in assay [3], in assay [4], in assay [7] and in assay [8] was above 100 µM throughout. Also, the TGI was 65.8 µM in assay [9], above 100 µM in [10] and above 100 µM in assay [11].

Regarding `COc1cc2c3c(c1OC)-c1c(ccc4c1OCO4)CC3(C#N)N(C(=O)c1ccccc1)CC2` (stereo not given), the TGI in [12], in [1], in assay [2], in [3], in assay [6] and in assay [7] was above 100 µM throughout. Moreover, the TGI was above 100 µM in assay [8], above 100 µM in assay [9], above 100 µM in [10] and 60.2 µM in assay [11].

For the compound `O=[N+]([O-])c1cccc(C2ON2C2CCCCC2)c1` (stereo not given), the TGI in [12] was above 100 µM; in [1], 32.6 µM; in assay [2], 32.4 µM; in [3] it was 49.7 µM; in assay [4] it was 32 µM; in [5], above 100 µM. Besides, the TGI in assay [6] came to 41.5 µM; in [7], 33 µM; in assay [8], 29.9 µM; in assay [9], 47.9 µM; in assay [10] it was 42.9 µM.

Regarding `C[C@]1(CO)CCC[C@@]2(C)C1CC[C@H]1CC3C[C@]12CC[C@]3(C)O` (stereo not given in full), the TGI in assay [12] was above 100 µM; in assay [1], above 100 µM; in assay [2] it was above 100 µM; in [4], above 100 µM; in [6], above 100 µM; in assay [7] it was 35.2 µM. The TGI in assay [8] was above 100 µM; in assay [9], 41.1 µM; in [10], above 100 µM; in assay [11] it was above 100 µM.

Turning to `Clc1ccc(C2SCc3nc4ccccc4n32)cc1Cl` (stereo not given), the TGI in assay [12] was 29.1 µM; in assay [1] it was 38.3 µM; in [2] it was 27.2 µM; in assay [4], 29.1 µM; in [7], 21 µM; in assay [8] it was 25.2 µM. Further, the values for the TGI in assay [9], in [10] and in assay [11] were 40.7 µM, 36 µM and 24.4 µM, respectively.

Consider `Fc1ccccc1C1CC(c2ccc3ccccc3c2)=Nc2ccccc2S1` (stereo not given), for which the TGI in [12], in assay [1], in assay [2], in assay [3], in [4] and in [5] was above 100 µM in each case. For the same compound, the TGI in [6], in [9] and in assay [11] was above 100 µM in each case.

Turning to `CC(=O)c1ccc(NC(=O)C(=O)Nn2c(=S)[nH]c3ccccc3c2=O)cc1`, the TGI in assay [12], in assay [1], in assay [2], in [3], in assay [4] and in assay [5] was above 100 µM in each case. Besides, the TGI in assay [7], in assay [8], in assay [9], in assay [10] and in assay [11] was above 100 µM throughout.

`CCCCCCCCCCCCCP(=O)(O)OCC`: the TGI in assay [12], in assay [1], in [2], in assay [3], in [4] and in assay [5] was above 100 µM each time. Further, the TGI in [7], in assay [8], in assay [9] and in assay [10] was above 100 µM in each case.

For the compound `NCCCNCCCCN(CCCN)/[N+]([O-])=N\O`, the TGI in assay [12], in assay [1], in assay [2], in assay [3], in assay [4] and in [5] was above 100 µM throughout. Also, the TGI in assay [6], in assay [7], in assay [8], in [9] and in assay [10] was above 100 µM throughout.

In the case of `C1=CC=C2NCCCNC3=CC=CC=CC3=NCCCN=C2C=C1`, the TGI in assay [12], in [1], in [2], in assay [3], in assay [4] and in assay [6] was above 100 µM in each case. The TGI in assay [7], in [8], in [9], in assay [10] and in assay [11] was above 100 µM each time.

For `O=C(Cn1ccnc1[N+](=O)[O-])c1ccc(F)cc1`, the TGI in assay [1], in assay [2], in [3], in [4], in assay [5] and in assay [6] was above 100 µM each time. In addition, the TGI in [7], in assay [9], in [10] and in [11] was above 100 µM throughout.

Regarding `COCCCNC(=O)CC(=O)NCCCOC`, the TGI in assay [12], in assay [1], in [2], in [3], in assay [4] and in [5] was above 100 µM each time. Further, the TGI in [7], in assay [8], in assay [9] and in assay [10] was above 100 µM each time.

For the compound `CCC(=O)c1c(NOC2OC(COC(C)=O)C(OC(C)=O)C(OC(C)=O)C2OC(C)=O)nc(OC)n(C)c1=O` (stereo not given), the TGI in assay [12], in assay [1], in assay [2], in assay [4], in assay [6] and in assay [7] was above 100 µM in each case. In addition, the TGI in assay [8], in [10] and in assay [11] was above 100 µM throughout.

For `COC1OC(COCc2ccc(Cl)cc2)C(OCc2ccc(Cl)cc2)C1N=[N+]=[N-]` (stereo not given), the TGI in [12], in assay [1], in assay [2], in [3], in [4] and in assay [5] was above 100 µM in each case. For the same compound, the TGI in assay [7], in assay [10] and in assay [11] was above 100 µM in each case.

On to `COC(=O)c1c(N)n[nH]c1N`, for which the TGI in assay [12], in assay [1], in assay [2], in [3], in assay [6] and in assay [7] was above 100 µM in each case. Moreover, the TGI in assay [8], in assay [9] and in assay [11] was above 100 µM each time.

For `CS(=O)(=O)N(N(CCCl)S(=O)(=O)c1ccccc1)S(C)(=O)=O`, the TGI in assay [1], in assay [2], in assay [3], in [4], in assay [5] and in [6] was above 100 µM throughout. Also, the TGI in [7], in [8], in assay [9] and in assay [11] was above 100 µM each time.

Take `O=[N+]([O-])c1cccc(-c2oc(C=Nc3ccccc3)c([N+](=O)[O-])c2-c2cccc([N+](=O)[O-])c2)c1`: the TGI in assay [12], in [1], in assay [2], in assay [3], in assay [4] and in assay [6] was above 100 µM each time. Moreover, the TGI in assay [7], in assay [8], in [9] and in assay [10] was above 100 µM in each case.

As for `CN(C)CCNC(=O)c1cccc2c1nc(-c1ccccc1)c1ccccc12`, the TGI in assay [12] was 26.4 µM; in [1], 15.3 µM; in assay [2] it was 4.34 µM; in assay [3] it was 6.17 µM; in assay [4], 13.4 µM; in assay [5] it was 27.9 µM. For the same compound, the TGI in assay [6] was 13.2 µM; in [7] it was 5.52 µM; in [8] it was 15.3 µM; in assay [9] it was 8 µM.

For `COc1cc(Nc2ccnc(NCCCNc3ccnc4cc(Cl)ccc34)n2)cc(OC)c1`, the GI50 in assay [1] was 1.38 µM; in [2], 1.7 µM; in [3], 1.37 µM; in assay [4] it was 1.8 µM; in [7], 1.51 µM; in assay [9] it was 2.04 µM. In addition, the GI50 in assay [13] was 1.89 µM. Moreover, the TGI in assay [1] turned out to be 2.9 µM; in assay [2], 3.46 µM; in assay [3], 2.79 µM; in [4], 3.53 µM; in assay [7] it was 2.84 µM; in assay [9], 4.54 µM. Also, in assay [13], the TGI stood at 4.81 µM.

Take `O=C(/C=C/c1cc([N+](=O)[O-])ccc1Cl)c1ccccc1`: the GI50 in assay [1] was 23 µM; in [2] it was 10.2 µM; in assay [3], 11.7 µM; in assay [4], 16.4 µM; in assay [7], 15.4 µM; in assay [9], 32 µM. Besides, the GI50 in assay [13] is 27.9 µM. For the same compound, the TGI was determined as 48.2 µM in assay [1]; 22.5 µM in assay [2]; 26.4 µM in [3]; 31.9 µM in assay [4]; 29.3 µM in assay [7]; 96.4 µM in assay [9]. Further, in assay [13], the TGI was above 100 µM.

Turning to `O=C(NCc1ccc(Cn2c(=O)sn(-c3ccccc3)c2=O)cc1)OCc1ccc2c(Br)cc(Br)c(O)c2n1`, the GI50 was 0.399 µM in [1]; 0.412 µM in assay [2]; 0.392 µM in [3]; 0.281 µM in assay [4]; 1.44 µM in assay [7]; 0.659 µM in assay [9]. Moreover, in assay [13], the GI50 is 1.71 µM. Also, the TGI in [1] is 1.79 µM; in [2], 1.51 µM; in [3], 1.77 µM; in [4] it was 0.927 µM; in assay [7], 2.75 µM; in [9], above 20.3 µM. The TGI in assay [13] turned out to be 5.66 µM.

On to `O=C(Nc1nc2ncn(CCNCc3ccccc3)c2c(=O)[nH]1)c1ccccc1`, for which the TGI in [12], in [1], in assay [2], in assay [3], in assay [4] and in assay [5] was above 100 µM throughout. Besides, the TGI in assay [6], in assay [7], in assay [8], in assay [9] and in assay [10] was above 100 µM in each case.

For `CC1C[C@@H]2C(=O)NC(=O)[C@@H]2c2c1c1ccccc1n2C` (stereo not given in full), the TGI in assay [12], in assay [1], in assay [2], in assay [3], in [6] and in assay [7] was above 100 µM throughout. For the same compound, the TGI in [8], in assay [9], in assay [10] and in [11] was above 100 µM throughout.

`NC(=O)c1ccc2nc(-c3ccc(Oc4ccc(Cl)cc4)cc3)[nH]c2c1`: the GI50 was 22.3 µM and 20.8 µM in [1]; 19.9 µM and 14.8 µM in assay [2]; 30 µM and 24.1 µM in [3]; 13.9 µM and 14.4 µM in assay [4]; 28.7 µM and 7.98 µM in [7]; 12.4 µM and 17.3 µM in [9]. The TGI in [1] is 75 µM and 38.9 µM; in assay [2], 75 µM and 29.8 µM; in assay [3], 75 µM and > 100 µM; in [4], 75 µM and 30.2 µM; in assay [7] it was 75 µM and 23.7 µM; in [9], 58.7 µM and 41.2 µM. Further, the TGI in [13] is > 75 µM and 20.7 µM.
